# Test results published in US20160250224A1, “OREXIN-CONTROL OF BONE FORMATION AND LOSS” (THE BOARD OF REGENTS OF THE UNIVERSITY OF TEXAS SYSTEM, priority 2013, published 2016).
# Where no end group is shown, it is not given here.
# Columns and labels:
# [1] = system: osteoblast differentiation from WT marrow; test: Ex vivo bone marrow osteoblast differentiation; assay type: cell-based, mouse; conditions: 10 nM, vs vehicle control
# Experimental: (§1) Ex Vivo Bone Marrow Differentiation. Bone marrow cells were cultured for 4 days in MSC media (Mouse MesenCult® Proliferation Kit, StemCell Technologies), then differentiated into osteoblast with a-MEM containing 10% FBS, 5 mM β-glycerophosphate and 100 μg/ml ascorbic acid for 9 days, or differentiated into adipocytes with adipogenesis medium (MesenCult Basal Medium+Mouse MesenCult Adipogenic Stimulatory Supplement, StemCell Technologies) for 7 days (Wei et al., 2012; Wei et al., 2011a; Wei et al., 2011b). For ghrelin knockdown, siRNA was transfected twice with Fugene HD (Roche) the day before and 3 days after differentiation. Osteoclast differentiation was performed as described (Wan et al., 2007; Wei et al., 2010).
# [2] = system: adipocyte differentiation from WT marrow; test: Ex vivo bone marrow adipocyte differentiation; assay type: cell-based, mouse; conditions: 10 nM, vs vehicle control
# Experimental: as §1
# ghrelin [3] = test: Ghrelin expression and secretion in marrow osteoblast differentiation cultures; assay type: cell-based, mouse; conditions: 10 nM; for ghrelin induction during osteoblast differentiation: ghrelin mRNA; for ghrelin secretion: osteoblast culture
# ghrelin [4] = test: Ghrelin expression and secretion in marrow adipocyte differentiation cultures; assay type: cell-based, mouse; conditions: for ghrelin expression in adipocyte differentiation cultures: 10 nM, ghrelin mRNA; for ghrelin secretion: adipocyte culture (not shown)
# WT mice = test: Chronic ICV injection of OX2R agonist in WT mice, bone analyses; assay type: in vivo, mouse
# Experimental: (§2) Bone Analyses. μCT and histomorphometry were performed as described (Wei et al., 2012; Wei et al., 2010). Calcein (20 mg/kg) were injected 2 and 10 days before bone collection. For strength measurement, tibiae were tested by 3-point bending, and a strength parameter (peak load at failure) was assessed with a Test Resources DDL200 axial loading machine outfitted with an Interface SMT1-22 force transducer. Cross-head displacement rate was 0.1 mm/sec. Tests were conducted on the mid-diaphyses with the bones resting on two supports 5 mm apart and the tibial anterior margins facing upward toward the actuator. Serum P1NP and CTX-1 were measured with the Rat/Mouse P1NP EIA kit and the RatLaps™ EIA kit, respectively (Immunodiagnostic Systems) (Wei et al., 2012).
# (§3) Chronic ICV Injection. Mice were single-housed one week before surgery. After anesthetized with 2-3% isoflurane, a cannula (3300PM/SPC; PlasticsOne) was implanted into the right lateral ventricle (0.3 mm posterior from the bregma, […] lateral from the midline, and 2.4 mm from the surface of skull) using standard sterile stereotactic techniques as described (Funato et al., 2009). An osmotic minipump (model 1004; Alzet) was attached to the cannula and implanted in the subcutaneous space. The OX2R selective agonist ([Ala11, D-Leu15] Orexin-B; American Peptide) (Asahi et al., 2003) or PBS control was continuously injected in the lateral ventricle for 35 days (0.5 nmol/day) before analyses. Ovariectomy or sham operation was performed 3 days before ICV infusion as described (Wei et al., 2011b).
# [5] = system: OVX-induced bone loss in WT female mice; test: Chronic ICV injection of OX2R agonist in ovariectomy (OVX) mouse model; assay type: in vivo; conditions: ICV 0.5 nmol/day for 35 days from 3 days after OVX, 6-month-old female mice
# Experimental: as §2, §3
# OX2R-KO mice = test: Chronic ICV injection of OX2R agonist in OX2R-KO mice; assay type: in vivo, mouse; conditions: ICV 0.5 nmol/day for 35 days
# Experimental: as §2
# Chronic ICV Injection. Mice were single-housed one week before surgery. After anesthetized with 2-3% isoflurane, a cannula (3300PM/SPC; PlasticsOne) was implanted into the right lateral ventricle (0.3 mm posterior from the bregma, […] lateral from the midline, and 2.4 mm from the surface of skull) using standard sterile stereotactic techniques as described (Funato et al., 2009). An osmotic minipump (model 1004; Alzet) was attached to the cannula and implanted in the subcutaneous space. […]
# Ob/Ob mice = test: Chronic ICV injection of OX2R agonist in Ob/Ob mice; assay type: in vivo, mouse
# Experimental: as §2, §3
# OX1 = target: T1, OX1 (Homo sapiens, UniProt O43613); conditions: OX1 vs OX2; cited from earlier work
# T1 sequence (O43613 1-425): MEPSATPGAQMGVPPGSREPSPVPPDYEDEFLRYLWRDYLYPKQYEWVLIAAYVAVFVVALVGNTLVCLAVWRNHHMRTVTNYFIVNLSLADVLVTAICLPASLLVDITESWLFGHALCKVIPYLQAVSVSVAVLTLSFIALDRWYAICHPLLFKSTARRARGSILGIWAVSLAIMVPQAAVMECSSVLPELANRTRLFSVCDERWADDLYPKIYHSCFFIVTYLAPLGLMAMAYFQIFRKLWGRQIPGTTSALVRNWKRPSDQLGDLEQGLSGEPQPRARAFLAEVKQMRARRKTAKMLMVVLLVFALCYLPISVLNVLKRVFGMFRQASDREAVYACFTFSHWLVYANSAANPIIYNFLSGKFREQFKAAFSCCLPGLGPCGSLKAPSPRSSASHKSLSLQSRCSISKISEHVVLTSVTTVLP
# 3T3-L1 adipocytes = conditions: cited from earlier work
# insomniacs = conditions: phase III, three months; cited from earlier work
# orexin receptor type 2 = target: T2, orexin receptor type 2 (Homo sapiens, UniProt O43614); conditions: type 2 vs type 1; cited from earlier work
# T2 sequence (O43614 1-444): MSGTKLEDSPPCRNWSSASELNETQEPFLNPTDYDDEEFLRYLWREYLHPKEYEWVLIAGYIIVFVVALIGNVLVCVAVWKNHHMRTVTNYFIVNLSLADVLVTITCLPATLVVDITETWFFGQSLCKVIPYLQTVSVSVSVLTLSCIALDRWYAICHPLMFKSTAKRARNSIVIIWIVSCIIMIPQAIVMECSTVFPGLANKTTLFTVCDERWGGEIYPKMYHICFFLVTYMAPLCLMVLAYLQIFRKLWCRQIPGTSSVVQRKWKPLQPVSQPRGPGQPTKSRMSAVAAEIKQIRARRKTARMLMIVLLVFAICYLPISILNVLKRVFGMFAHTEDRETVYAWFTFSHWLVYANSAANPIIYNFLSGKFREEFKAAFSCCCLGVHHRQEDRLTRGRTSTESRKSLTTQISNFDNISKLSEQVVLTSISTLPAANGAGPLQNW
# orexin-A receptor = target: T3, orexin-A receptor (Rattus norvegicus, UniProt P56718); conditions: rats, low doses; cited from earlier work
# T3 construct: The insula contains orexin-A receptors; from tissue; host or cells: rat brain (insula; whole brain), in vivo
# T3 sequence (P56718 1-416): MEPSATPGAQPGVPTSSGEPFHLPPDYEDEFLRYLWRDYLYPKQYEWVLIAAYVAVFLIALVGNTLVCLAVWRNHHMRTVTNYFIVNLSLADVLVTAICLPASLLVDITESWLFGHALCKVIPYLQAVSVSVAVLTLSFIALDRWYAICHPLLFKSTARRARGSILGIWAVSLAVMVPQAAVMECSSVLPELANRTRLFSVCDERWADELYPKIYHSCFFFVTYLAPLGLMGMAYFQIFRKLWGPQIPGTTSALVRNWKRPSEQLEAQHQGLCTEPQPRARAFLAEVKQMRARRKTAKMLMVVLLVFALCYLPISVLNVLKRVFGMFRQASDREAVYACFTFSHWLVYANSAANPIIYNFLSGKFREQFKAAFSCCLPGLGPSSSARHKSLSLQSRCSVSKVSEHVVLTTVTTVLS
# [6] = ICV 0.5 nmol/day for 35 days, WT male mice, serum
# [7] = ICV 0.5 nmol/day for 35 days, WT male mice, tibiae μCT
molecule,measurement,setting,value
"CNC(=O)[C@@H](c1ccccc1)N1CCc2cc(OC)c(OC)cc2[C@@H]1CCc1ccc(C(F)(F)F)cc1 [ACT-078573, almorexant]",osteoblast differentiation,[1],promoted
same,adipocyte differentiation,[2],attenuated
same,ghrelin induction during osteoblast differentiation,ghrelin [3],potentiated
same,ghrelin secretion,ghrelin [3],elevated
same,ghrelin expression in adipocyte differentiation cultures,ghrelin [4],enhanced
same,ghrelin secretion,ghrelin [4],elevated
"[Ala11, D-Leu15] Orexin-B [OX2R-AG]",bone mass (μCT),"WT mice; ICV 0.5 nmol/day for 35 days, WT male mice",remarkably enhanced
same,CTX-1,WT mice; [6],unaltered
same,"P1NP, increased",WT mice; [6],100%
same,"peak load at fracture, higher","WT mice; ICV 0.5 nmol/day for 35 days, WT male mice, three-point bending",11%
same,"BMD, higher",WT mice; [7],8%
same,"SMI, lower",WT mice; [7],25%
same,"Tb.N, higher",WT mice; [7],32%
same,"Tb.Sp, lower",WT mice; [7],33%
same,"Tb.Th, higher",WT mice; [7],30%
same,"cortical bone BV/TV, higher",WT mice; [7],1%
same,"cortical bone porosity, less",WT mice; [7],30%
same,"trabecular BV/TV, higher",WT mice; [7],66%
same,serum leptin levels,"WT mice; ICV injection, WT mice",decreased
same,OVX-induced bone loss,[5],attenuated
same,OVX-mediated increase in CTX-1,[5],not significantly altered
same,OVX-mediated reduction in P1NP,[5],significantly abolished
same,OVX-mediated reduction in bone formation rate,[5],rescued
same,OVX-mediated reduction in osteoblast number,[5],rescued
same,Serum P1NP,OX2R-KO mice; 10-week-old OX2R-KO male mice,unaltered
same,bone anabolic effect,OX2R-KO mice; OX2R-KO male mice,abolished
same,BV/TV,Ob/Ob mice,no longer able to increase
same,Tb.N,Ob/Ob mice,no longer able to increase
same,Tb.Sp,Ob/Ob mice,no longer able to increase
same,bone enhancing effects,Ob/Ob mice; 12 week old male,completely abolished
same,P1NP,Ob/Ob mice; serum,no longer able to increase
"orexin-A: Human orexin-A peptide, 33 amino acid residues, agonist for OX1R and OX2R (QPLPDCCRQKTCSCRLYELLHGAGNHAAGILTL; ends and bridges not checked; cysteine pairing not given here; UniProt O43612 34-66, looked up)",osteoblast differentiation,[1],inhibited
same,adipocyte differentiation,[2],enhanced
same,ghrelin induction during osteoblast differentiation,ghrelin [3],abolished
same,ghrelin expression in adipocyte differentiation cultures,ghrelin [4],inhibited
same,binding to both OX1 and OX2,OX1,approximately equal affinity
same,glucose uptake,3T3-L1 adipocytes; 3T3-L1 adipocytes,stimulates
same,lipogenesis,3T3-L1 adipocytes; adipocytes,increases
same,lipolysis,3T3-L1 adipocytes; adipocytes,inhibits
same,secretion of adiponectin,3T3-L1 adipocytes; adipocytes,stimulates
Cc1cc(NC(=O)Nc2ccc(N(C)C)cc2)c2cc(F)cc(F)c2n1 [SB-408124],osteoblast differentiation,[1],promoted
same,adipocyte differentiation,[2],attenuated
same,ghrelin induction during osteoblast differentiation,ghrelin [3],potentiated
same,ghrelin secretion,ghrelin [3],elevated
same,ghrelin expression in adipocyte differentiation cultures,ghrelin [4],enhanced
same,ghrelin secretion,ghrelin [4],elevated
Cc1ccc(-n2nccn2)c(C(=O)N2CCN(c3nc4cc(Cl)ccc4o3)CC[C@H]2C)c1 [suvorexant],falling asleep,insomniacs,faster
same,sleep duration,insomniacs,an hour longer
"orexin-B: Human orexin-B, linear 28 amino acid residue peptide, agonist for mainly OX2R","potency at OX1, less than at OX2",OX1,5 times
same,selectivity for orexin receptor type 2,orexin receptor type 2,10 fold
"Cc1nc2ccc(NC(=O)Nc3ccnc4cccnc34)cc2o1 [SB-334,867]",nicotine self-administration,orexin-A receptor,decreased
